# Patent US20250298040A1, “MEASUREMENT OF REACTIVE OXYGEN SPECIES TO ASSESS RED BLOOD CELL QUALITY” (UNIVERSITY OF MARYLAND, BALTIMORE, priority 2022, published 2025)
# How the values were obtained:
# [1] = CMH oxidation by O2^·− from xanthine oxidase/hypoxanthine, cell-free EPR; details: 1 mM CMH
# Protocol: (§1) Measurement of CMH oxidation by EPR spectroscopy. All samples for EPR measurement contained 1 mM CMH. Other reagents, when used, were at the following concentrations: xanthine oxidase (XO), 0.03 U/mL; superoxide dismutase (SOD), 5 μM; hypoxanthine (HX), 0.5 mM; hydrogen peroxide (H2O2), 1 mM. Cell-free measurements were made in phosphate-buffered saline (PBS) containing 1 mM diethylenetriaminepentaacetic acid (DTPA). For measurements on RBCs, each sample was made by mixing 2 μL of 50 mM CMH·HCl stock solution with 98 μL of RBC suspension (˜40% hematocrit) in Citrate Phosphate Dextrose Adenine (CPDA-1, Sigma-Aldrich, St. Louis, MO). Time zero (t=0) is the time at which CMH is mixed into the sample. The amplitude (h) of the center peak of the CM· nitroxide EPR spectrum was converted into concentration (C in μM) by using a calibration equation, which for this example was C=(h−0.03308)/0.06461, determined using a series of standard samples.
# (§2) Hydroxylamine molecular probe oxidation by O2^·−. The enzyme xanthine oxidase (XO) oxidizes its substrate hypoxanthine and generates O2^·− in the process. […] The first and last EPR spectrum of a representative data set are plotted as the inset at the top left, showing growth of the EPR spectrum as reaction proceeds. Superoxide dismutase (SOD) destroys O2^·− in a rapid enzymatic process, thus preventing it from reacting with CMH. […]
# [2] = CMH incubation with hydrogen peroxide, cell-free EPR
# Protocol: as §1, §2
# [3] = test system: RBCs from FVB and B6 mice; test: CMH oxidation in refrigerator-stored murine RBCs (FVB vs B6), EPR; format: cell-based, mouse
# Protocol: as §1
# Murine blood collection and storage. Mouse blood collections were approved by the University of Maryland, Baltimore Institutional Animal Care and Use Committee (IACUC) (protocol #0520008). Processed RBCs from two different mouse strains (C57BL/6J or B6 for short, Jackson Laboratory, Barr Harbor, ME and FVB, Charles Rivers, Worcester, MA) were evaluated in this study. Whole blood (approximately 800-1000 μL per mouse) was collected by cardiac puncture using a 21 G×1 inch needle and 1 mL syringe containing Citrate Phosphate Dextrose solution (CPD) from n=15 B6 and n=15 FVB mice. Blood was pooled within the strains in 15 mL falcon tubes and centrifuged at 750×g for 5 minutes. The plasma and buffy coat were removed. Each aliquot was washed 3 times in 5 mL of phosphate-buffered saline containing 10 mM glucose (PBS-G) with gentle swirling for 3 minutes followed by centrifugation at 750×g for 5 minutes. After the final wash, PBS-G was removed and CPDA-1 (840 μL, 14% of the total volume) was added to RBCs (approximately 6 mL of packed RBCs). Hematocrits were approximately 70% across storage tubes. Finally, preparations were split into 12 equal volumes (500 μL) and stored in 1.7 mL Eppendorf tubes (n=3 per mouse strain per time point) in a refrigerator at 4-6° C. Measurements were made on day 1 (immediately after processing) and then on days 2, 4 and 8 after processing such that measurements were made from independent tubes and not a single pooled blood tube.
# Data analysis and presentation. Least-squares curve fitting and statistical analysis were performed using OriginPro software (OriginLab Corp., Northampton, MA). […] Difference between the two strains on the same day was assessed by t-test; within-strain differences over multiple days of storage were assessed through ANOVA.
# human RBCs = test: CMH oxidation in human RBCs stored under normoxic vs hypoxic conditions, EPR; format: cell-based; details: entire duration of storage, p<9.31×10^−4
# Protocol: as §1
# Distinguishing between normoxic and hypoxic storage conditions. Hydroxylamine molecular probe, e.g., CMH, measurements can be used to distinguish human RBCs stored under normoxic and hypoxic conditions, as shown in FIG. 3B. Duplicate samples of human RBCs were stored 1) under normoxic conditions (equilibrated with air), and 2) under hypoxic conditions (equilibrated with low-oxygen atmosphere) and tested periodically with CMH. […]
# [4] = test system: RBCs from healthy donors and donors with sickle-cell disease; test: CMH oxidation in RBCs from healthy donors vs donors with sickle-cell disease, EPR; format: cell-based, human; details: SCD n=19, Healthy n=6, p=1.26×10^−6
# Protocol: as §1
# Distinguishing between RBCs from healthy subjects and patients with sickle-cell disease. Hydroxylamine molecular probe, e.g., CMH, measurements can be used to differentiate between RBCs from healthy donors and donors with sickle-cell disease, as shown in FIG. 4. RBCs from screened healthy donors (Healthy, n=6) and donors that have sickle-cell disease (SCD, n=19) were tested with CMH. […] Error bars represent s.e.m.
# RBCs [5] = test: Complete blood count RBC parameters following CMH exposure; format: cell-based, human; details: CMH 0.1, 0.3, 1.0, 3.0 and 10 mM, 10 minutes, ambient temperature, vs vehicle ddH2O
# Protocol: (§3) Donor blood. Blood was obtained from healthy volunteers under informed consent. All human subject research was approved by the University of Maryland, Baltimore Institutional Review Board under Protocol #-HP-00092436.
# (§4) CMH Incubation. Whole blood was centrifuged at 900 g/2500 rpm for 10 minutes to separate RBC from plasma/buffy coat. Plasma and buffy coat were removed, and RBCs were washed five times with 0.5 ml volumes of isotonic phosphate buffered saline containing 5 mM glucose. After each wash, supernatant and residual buffy coat was removed. After the 5th wash the RBC pellet was mixed with the preservative solution, CPDA-1 in an 85:15 ratio (150 μL CPDA-1 for a total volume of 1 mL). This step was performed to approximate the preparation of packed RBCs for refrigerator storage. CMH was diluted with double deionized H2O (ddH2O) to make stock solutions ranging from 400-4 mM. 10 μL of stock CMH solution or ddH2O was added to 390 μL of RBC/CPDA-1 suspensions, mixed gently but thoroughly and incubated at ambient temperature for 10 minutes. The concentrations tested were as follows: 0.1, 0.3, 1.0, 3.0 and 10 mM. This step was performed to approximate the preparation time needed for assaying superoxide in donor RBCs at the point of collection or in a blood bank setting. After 10 minutes of incubation, complete blood count, shear stress deformability, oxygen equilibrium (oxygen saturation and desaturation) was measured as 3 technical replicates for all samples. Fixation of RBCs was performed for scanning electron microscopy.
# Total Blood cell count. Total blood cell count was quantified using ABX Pentra 60 C+ Hematology analyzer (HORIBA Instruments Inc., Kyoto, Japan). Briefly, 60 μL of whole blood was used for the analyses.
# RBCs [6] = test: Scanning electron microscopy of RBCs exposed to CMH; format: cell-based, human; details: CMH 0.1, 0.3, 1.0, 3.0 and 10 mM, 10 minutes, ambient temperature, vs vehicle
# Protocol: as §3
# as §4, with “This step was performed to approximate the preparation time needed for assaying superoxide in donor RBCs at the point of collection or in a blood bank setting.” left out, “Fixation of RBCs was performed for scanning electron microscopy.” left out
# RBCs [7] = test: Shear stress ektacytometry of RBCs exposed to CMH; format: cell-based, human; details: CMH 0.1, 0.3, 1.0, 3.0 and 10 mM; shear stress 5.33 Pa and 30 Pa; vs vehicle, P>0.05
# Protocol: as §3
# as §4, with “10 μL of stock CMH solution or ddH2O was added to 390 μL of RBC/CPDA-1 suspensions, mixed gently but thoroughly and incubated at ambient temperature for 10 minutes. The concentrations tested were as follows: 0.1, 0.3, 1.0, 3.0 and 10 mM. This step was performed to approximate the preparation time needed for assaying superoxide in donor RBCs at the point of collection or in a blood bank setting.” left out, “Fixation of RBCs was performed for scanning electron microscopy.” left out
# Measurements of RBC deformability. RBC deformability was measured by ektacytometry, using the laser-assisted optical rotational cell analyzer (LORCA MaxSis, Mechatronics, Netherlands) at 37° C. […] RBC deformability was measured by applying 9 different shear stresses ([…]). […]
# RBCs [8] = test: Oxygen equilibrium (P50) of RBCs exposed to CMH; format: cell-based, human; details: CMH up to 10 mM (10-fold the intended assay concentration)
# Protocol: as §3
# as §4, with “10 μL of stock CMH solution or ddH2O was added to 390 μL of RBC/CPDA-1 suspensions, mixed gently but thoroughly and incubated at ambient temperature for 10 minutes. The concentrations tested were as follows: 0.1, 0.3, 1.0, 3.0 and 10 mM. This step was performed to approximate the preparation time needed for assaying superoxide in donor RBCs at the point of collection or in a blood bank setting.” left out, “Fixation of RBCs was performed for scanning electron microscopy.” left out
# Measurement of Oxygen equilibrium (p50). […] The P50 value was determined using an automated blood oxygen analyzer (Hemox, Model B, TCS Scientific) following the manufacturer's protocol. […]
# RBC = details: cited from earlier work
Compound,"reaction of CMH with O2^·− (CM· formation quantified by EPR) ([1]; XO 0.03 U/mL, hypoxanthine 0.5 mM, PBS with 1 mM DTPA)",production of CM· in presence of SOD ([1]; XO + hypoxanthine + SOD 5 μM),"generation of CM· on incubation with H2O2 ([2]; 1 mM CMH, 1 mM H2O2, PBS with 1 mM DTPA)",selectivity of CMH for O2^·− over H2O2 ([2]; 1 mM H2O2),"rate of CM· generation in B6 RBCs ([3]; B6 mouse RBCs, day 2 of storage, 1 mM CMH, slightly above buffer control CPDA-1)","rate of CM· generation in FVB RBCs ([3]; FVB mouse RBCs vs B6, day 2 of storage, 1 mM CMH)","mean rate of CMH to CM· oxidation, FVB versus B6 murine RBCs ([3]; days 1, 2, 4 and 8 of storage)","rate of CMH oxidation, normoxic vs hypoxic stored RBCs (human RBCs)","rate of CMH oxidation, SCD RBCs vs Healthy RBCs [4]",% hematocrit (RBCs [5]),Mean corpuscular hemoglobin (RBCs [5]),Mean corpuscular volume (RBCs [5]),RBC count (RBCs [5]),mean corpuscular hemoglobin concentration (RBCs [5]),total hemoglobin (RBCs [5]),RBC membrane/morphology changes by SEM (RBCs [6]),RBC elongation index (RBCs [7]),oxygen equilibrium curves / P50 (hemoglobin allostery) (RBCs [8]),membrane permeance (RBC),"mean [CM·] higher in RBCs from FVB mice than B6 ([3]; at the time of CMH addition, each day of measurement)"
"COC(=O)C1CC(C)(C)N(O)C1(C)C (stereo not drawn) [CMH, 1-hydroxy-3-methoxycarbonyl-2,2,5,5-tetramethylpyrrolidine]",converts it to CM·,negligible production of CM·,negligible generation of CM·,high selectivity,low rate,much higher rate,3 fold,much higher rate,much higher rates,no CMH concentration dependent differences,no CMH concentration dependent differences,no CMH concentration dependent differences,no CMH concentration dependent differences,no CMH concentration dependent differences,no CMH concentration dependent differences,no remarkable changes,do not change the elongation indices,does not impart aberrant hemoglobin allostery,membrane-permeant,
COC(=O)C1CC(C)(C)N([O])C1(C)C (stereo not drawn) [CM·],,,,,,,,,,,,,,,,,,,membrane-permeant,~9 µM
